Results reported in patent US10711004B2 (Genentech, Inc., priority 2018, dated 2020).
Where two headings read alike, the source gives them in different places.

Molecular target: human TRPA1 channel (Homo sapiens (Human), UniProt O75762)
Test: hTRPA1 CHO Ca2+ FLIPR Tetra assay, block of cinnamaldehyde induced calcium influx
Type: cell-based
Conditions: CHO cells expressing TRPA1, Hill coefficient fixed to 1.5
Procedure, shortened: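 IC50 values come from fixed-Hill fits of inhibition of cinnamaldehyde-induced (about EC50 level) calcium influx measured by FLIPR Tetra. Before agonist, TRPA1-expressing CHO cells loaded with calcium indicator were exposed to compound for 10 or 90 min at room temperature in HEPES-buffered HBSS, pH 7.4, with 0.02% BSA.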

[1] = read-out: hTRPA1 IC50 (10 min), compounds incubated 10 minutes at room temperature before cinnamaldehyde agonist
[2] = read-out: hTRPA1 IC50 (90 min), compounds incubated 90 minutes at room temperature before cinnamaldehyde agonist

Sequence of human TRPA1 channel (O75762 whole entry): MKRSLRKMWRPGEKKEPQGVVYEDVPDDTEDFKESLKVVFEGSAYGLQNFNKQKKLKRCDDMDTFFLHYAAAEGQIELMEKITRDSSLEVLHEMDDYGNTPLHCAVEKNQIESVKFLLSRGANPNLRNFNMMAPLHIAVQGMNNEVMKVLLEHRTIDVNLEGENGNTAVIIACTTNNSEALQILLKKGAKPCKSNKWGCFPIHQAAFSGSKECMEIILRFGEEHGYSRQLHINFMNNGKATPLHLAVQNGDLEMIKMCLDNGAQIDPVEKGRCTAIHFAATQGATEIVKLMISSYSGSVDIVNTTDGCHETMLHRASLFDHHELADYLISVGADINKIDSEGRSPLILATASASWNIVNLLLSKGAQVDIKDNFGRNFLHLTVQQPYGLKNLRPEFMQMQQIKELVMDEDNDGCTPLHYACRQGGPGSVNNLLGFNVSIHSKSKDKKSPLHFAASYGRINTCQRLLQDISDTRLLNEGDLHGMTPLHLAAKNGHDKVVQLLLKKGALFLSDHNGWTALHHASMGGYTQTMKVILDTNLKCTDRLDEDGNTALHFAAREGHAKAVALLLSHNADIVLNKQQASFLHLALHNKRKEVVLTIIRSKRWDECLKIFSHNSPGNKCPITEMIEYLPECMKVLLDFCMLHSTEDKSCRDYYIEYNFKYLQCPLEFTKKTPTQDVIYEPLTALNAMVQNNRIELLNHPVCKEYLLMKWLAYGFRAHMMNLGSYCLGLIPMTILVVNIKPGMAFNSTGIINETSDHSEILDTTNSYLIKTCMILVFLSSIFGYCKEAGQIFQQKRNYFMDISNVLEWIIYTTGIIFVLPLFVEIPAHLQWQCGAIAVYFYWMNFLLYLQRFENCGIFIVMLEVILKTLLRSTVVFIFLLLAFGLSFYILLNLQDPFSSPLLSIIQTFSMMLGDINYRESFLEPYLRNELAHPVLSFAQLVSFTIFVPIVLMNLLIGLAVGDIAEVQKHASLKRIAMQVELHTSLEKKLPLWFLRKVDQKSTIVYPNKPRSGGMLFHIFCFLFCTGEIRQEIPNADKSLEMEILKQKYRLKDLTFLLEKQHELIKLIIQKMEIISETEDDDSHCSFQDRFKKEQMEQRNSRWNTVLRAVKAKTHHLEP

| IC50 [1] [nM] | IC50 [2] [nM] | Compound | further results |
| --- | --- | --- | --- |
| 64 | 27 | Cn1cnc2ncn(Cc3nc([C@@H]4[C@H]5C=C(c6ccc(F)cn6)C[C@H]54)no3)c(=O)c21 [Example Compound 110, 1-((3-((1R,5R,6S)-3-(5-fluoropyridin-2-yl)bicyclo[3.1.0]hex-2-en-6-yl)-1,2,4-oxadiazol-5-yl)methyl)-7-methyl-1,7-dihydro-6H-purin-6-one] | – |
| 196 | 130 | O=c1c2cccnc2ncn1Cc1nc([C@H]2[C@@H]3CN(c4cc(F)ccn4)C[C@@H]32)no1 [Example Compound 154, 3-((3-((1R,5S,6r)-3-(4-fluoropyridin-2-yl)-3-azabicyclo[3.1.0]hexan-6-yl)-1,2,4-oxadiazol-5-yl)methyl)pyrido[2,3-d]pyrimidin-4(3H)-one] | – |
| 26.2 | 22 | Cn1cnc2ncn(Cc3nc([C@H]4[C@@H]5CN(c6cccc(-c7cnco7)c6)C[C@@H]54)no3)c(=O)c21 [Example Compound 199, 7-methyl-1-((3-((1R,5S,6r)-3-(3-(oxazol-5-yl)phenyl)-3-azabicyclo[3.1.0]hexan-6-yl)-1,2,4-oxadiazol-5-yl)methyl)-1,7-dihydro-6H-purin-6-one] | – |
| 162 | 38 | Cn1cnc2ncn(Cc3nc([C@H]4[C@@H]5CN(c6ccc(-c7cnco7)cc6)C[C@@H]54)no3)c(=O)c21 [Example Compound 150, 7-methyl-1-((3-((1R,5S,6r)-3-(4-(oxazol-5-yl)phenyl)-3-azabicyclo[3.1.0]hexan-6-yl)-1,2,4-oxadiazol-5-yl)methyl)-1,7-dihydro-6H-purin-6-one] | – |
| 383 | 110 | Cn1cnc2ncn(Cc3nc([C@H]4[C@@H]5CN(c6ccncc6F)C[C@@H]54)no3)c(=O)c21 [Example Compound 131, 1-((3-((1R,5S,6r)-3-(3-fluoropyridin-4-yl)-3-azabicyclo[3.1.0]hexan-6-yl)-1,2,4-oxadiazol-5-yl)methyl)-7-methyl-1,7-dihydro-6H-purin-6-one] | – |
| – | – | Cn1cnc2ncn(Cc3nc([C@H]4[C@@H]5Cc6ccccc6[C@@H]54)no3)c(=O)c21 (stereo in doubt) [Example Compound 3, 7-methyl-1-[[3-[rac-(1S,1aS,6aR)-1,1a,6,6a-tetrahydrocyclopropa[a]inden-1-yl]-1,2,4-oxadiazol-5-yl]methyl]purin-6-one] | IC50 (compounds incubated 10 minutes at room temperature before cinnamaldehyde agonist): 588 nM |
| 66.9 | – | O=c1c2cccnc2ncn1Cc1nc([C@H]2C[C@](F)(c3cccc(F)c3)C2)no1 [Example Compound 197, 3-((3-((1s,3s)-3-fluoro-3-(3-fluorophenyl)cyclobutyl)-1,2,4-oxadiazol-5-yl)methyl)pyrido[2,3-d]pyrimidin-4(3H)-one] | – |
| 26.6 | 16 | COc1ccc(C2=C[C@H]3[C@@H](C2)[C@@H]3c2noc(Cn3cnc4ncn(C)c4c3=O)n2)cc1 [Example Compound 119, 1-((3-((1R,5R,6S)-3-(4-methoxyphenyl)bicyclo[3.1.0]hex-2-en-6-yl)-1,2,4-oxadiazol-5-yl)methyl)-7-methyl-1,7-dihydro-6H-purin-6-one] | – |
| 24.3 | – | Cn1cnc2ncn(Cc3nc([C@H]4C[C@H](Oc5cccc(F)c5)C4)no3)c(=O)c21 [Example Compound 176, 1-((3-((1r,3r)-3-(3-fluorophenoxy)cyclobutyl)-1,2,4-oxadiazol-5-yl)methyl)-7-methyl-1,7-dihydro-6H-purin-6-one] | – |
| 194 | 43 | Cn1cnc2ncn(Cc3nc([C@H]4[C@@H]5CN(c6cc(F)ccn6)C[C@@H]54)no3)c(=O)c21 [Example Compound 182, 1-((3-((1R,5S,6r)-3-(4-fluoropyridin-2-yl)-3-azabicyclo[3.1.0]hexan-6-yl)-1,2,4-oxadiazol-5-yl)methyl)-7-methyl-1,7-dihydro-6H-purin-6-one] | – |
| 16.6 | 7.6 | Cn1cnc2ncn(Cc3nc([C@@H]4[C@H]5C=C(c6ccc7ccncc7c6)C[C@H]54)no3)c(=O)c21 [Example Compound 136, 1-((3-((1R,5R,6S)-3-(isoquinolin-7-yl)bicyclo[3.1.0]hex-2-en-6-yl)-1,2,4-oxadiazol-5-yl)methyl)-7-methyl-1,7-dihydro-6H-purin-6-one] | – |
| – | – | Cn1cnc2ncn(Cc3nc([C@@H]4[C@H]5C=C(c6cccc(F)c6F)C[C@H]54)no3)c(=O)c21 [Example Compound 254, 7-methyl-1-[[3-[(1R,5R,6S)-3-(2,3-difluorophenyl)-6-bicyclo[3.1.0]hex-2-enyl]-1,2,4-oxadiazol-5-yl]methyl]purin-6-one] | IC50 (read-out: hTRPA1 IC50 (10 min), compounds incubated 10 minutes at room temperature before cinnamaldehyde agonist, listed as 254): 12.3 nM; IC50 (read-out: hTRPA1 IC50 (90 min), compounds incubated 90 minutes at room temperature before cinnamaldehyde agonist, listed as 254): 2.1 nM |
| 143 | – | 1-((3-((1r,3r)-3-((3-chlorophenyl)difluoromethyl) cyclobutyl)-1,2,4-oxadiazol-5-yl)methyl)-7-methyl-1,7-dihydro-6H-purin-6-one [Example Compound 81] | – |
| 222 | 170 | Cc1ccc(N2C[C@@H]3[C@H](C2)[C@H]3c2noc(Cn3cnc4ncn(C)c4c3=O)n2)nc1 [Example Compound 140, 7-methyl-1-((3-((1R,5S,6r)-3-(5-methylpyridin-2-yl)-3-azabicyclo[3.1.0]hexan-6-yl)-1,2,4-oxadiazol-5-yl)methyl)-1,7-dihydro-6H-purin-6-one] | – |
| 287 | – | Cn1cnc2ncn(Cc3nc([C@H]4[C@@H]5CN(c6cncc(Cl)c6)C[C@@H]54)no3)c(=O)c21 | – |
| 304 | 68 | Cn1c(NCCO)nc2ncn(Cc3nc([C@H]4[C@@H]5C=C(c6ccccc6)C[C@@H]54)no3)c(=O)c21 [Example Compound 252, 8-(2-hydroxyethylamino)-7-methyl-1-[[3-[(1S,5S,6R)-3-phenyl-6-bicyclo[3.1.0]hex-2-enyl]-1,2,4-oxadiazol-5-yl]methyl]purin-6-one] | – |
| 142 | – | Cn1cnc2ncn(Cc3nc([C@H]4C[C@H](c5ccc(OC(F)F)cc5)C4)no3)c(=O)c21 | – |
| 73.5 | 17 | Cn1cnc2ncn(Cc3nc([C@H]4[C@@H]5CN(c6cccc(C#N)c6)C[C@@H]54)no3)c(=O)c21 [Example Compound 235, 3-((1R,5S,6r)-6-(5-((7-methyl-6-oxo-6,7-dihydro-1H-purin-1-yl)methyl)-1,2,4-oxadiazol-3-yl)-3-azabicyclo[3.1.0]hexan-3-yl)benzonitrile] | – |
| 33.5 | 14 | CNc1nc2ncn(Cc3nc([C@@H]4[C@H]5C=C(c6ccccc6)C[C@H]54)no3)c(=O)c2n1C [Example Compound 262, 7-methyl-8-(methylamino)-1-[[3-[(1R,5R,6S)-3-phenyl-6-bicyclo[3.1.0]hex-2-enyl]-1,2,4-oxadiazol-5-yl]methyl]purin-6-one] | – |
| 141 | – | Cc1ccnc2ncn(Cc3nc([C@H]4C[C@](O)(c5ccc(Cl)cc5)C4)no3)c(=O)c12 [Example Compound 10, 3-((3-((1s,3s)-3-(4-chlorophenyl)-3-hydroxycyclobutyl)-1,2,4-oxadiazol-5-yl)methyl)-5-methylpyrido[2,3-d]pyrimidin-4(3H)-one] | – |
| 10.4 | 4.1 | Cn1nnc2ncn(Cc3nc([C@@H]4[C@H]5C=C(c6ccccc6)C[C@H]54)no3)c(=O)c21 [Example Compound 109, 1-methyl-6-((3-((1R,5R,6S)-3-phenylbicyclo[3.1.0]hex-2-en-6-yl)-1,2,4-oxadiazol-5-yl)methyl)-1,6-dihydro-7H-[1,2,3]triazolo[4,5-d]pyrimidin-7-one] | – |
| 38.4 | 17 | Cn1cc(-c2cccc(N3C[C@@H]4[C@H](C3)[C@H]4c3noc(Cn4cnc5ncn(C)c5c4=O)n3)c2)cn1 [Example Compound 200, 7-methyl-1-((3-((1R,5S,6r)-3-(3-(1-methyl-1H-pyrazol-4-yl)phenyl)-3-azabicyclo[3.1.0]hexan-6-yl)-1,2,4-oxadiazol-5-yl)methyl)-1,7-dihydro-6H-purin-6-one] | – |
| 26.6 | 18 | Cn1cnc2ncn(Cc3nc([C@@H]4CC[C@@H](c5ccc(F)cc5)C4)no3)c(=O)c21 [Example Compound 172, 1-((3-((1R,3R)-3-(4-fluorophenyl)cyclopentyl)-1,2,4-oxadiazol-5-yl)methyl)-7-methyl-1,7-dihydro-6H-purin-6-one] | – |
| 58.7 | 48 | Cn1cnc2ncn(Cc3nc([C@H]4[C@@H]5C=C(c6ccc7ccncc7c6)C[C@@H]54)no3)c(=O)c21 [Example Compound 135, 1-((3-((1S,5S,6R)-3-(isoquinolin-7-yl)bicyclo[3.1.0]hex-2-en-6-yl)-1,2,4-oxadiazol-5-yl)methyl)-7-methyl-1,7-dihydro-6H-purin-6-one] | – |
| 41.8 | 15 | COc1ccc(C2=C[C@@H]3[C@H](C2)[C@H]3c2noc(Cn3cnc4ncn(C)c4c3=O)n2)cc1 [Example Compound 118, 1-((3-((1S,5S,6R)-3-(4-methoxyphenyl)bicyclo[3.1.0]hex-2-en-6-yl)-1,2,4-oxadiazol-5-yl)methyl)-7-methyl-1,7-dihydro-6H-purin-6-one] | – |

| Compound | IC50 [1] [nM] | IC50 [2] [nM] | further results |
| --- | --- | --- | --- |
| Cn1cnc2ncn(Cc3nc([C@@H]4[C@@H]5CN(c6cccc(Cl)c6)C[C@@H]54)no3)c(=O)c21 [Example Compound 24, 7-methyl-1-[[3-[(1R,5S,6 r)-3-(3-chlorophenyl)-3-azabicyclo[3.1.0]hexan-6-yl]-1,2,4-oxadiazol-5-yl]methyl]purin-6-one] | 8.38 | – | – |
